Experimental data taken from patent publication US11174439B2, “Method to inhibit polymerization in a process water” (Ecolab USA, Inc., priority 2016, dated 2021).
Where “and” joins values, the source holds several entries; their conditions need not be identical. Equal values may be shown once.

Assay: Pygas-water partition coefficient determination (simulated pygas / de-ionized water, HPLC-MS)
Assay type: physicochemical
Details: for [HTMPO] (ppm) in Undiluted Phase, Average / [HTMPOH] (ppm) in Undiluted Phase, Average / [sBuPDA] (ppm) in Undiluted Phase, Average: average of 3 trials ± standard uncertainty; for [HTMPO] (ppm) in Undiluted Phase / [HTMPOH] (ppm) in Undiluted Phase / [sBuPDA] (ppm) in Undiluted Phase: individual trials 1-3; for [HTMPO] (ppm) in Undiluted Phase: inhibitor 1.0 wt % total; for Partition Ratio (pygas/aqueous): simulated pygas vs de-ionized water, ± standard uncertainty
Procedure: Pygas-water partition coefficients are determined by measuring the concentration of a polymerization inhibitor in a pygas-water mixture. In some embodiments, a pygas from an actual process water sample is used as the pygas in the determination; in some such embodiments, an actual process water is used. In other embodiments, a simulated pygas is formed and water is added to the simulated pygas for the determination. For purposes of providing measurements related to the disclosures herein, a simulated pygas consisting essentially of a mixture of toluene, styrene, cyclohexane, n-hexane, and dicyclopentadiene is employed. Partition coefficient is determined by mixing equal volumes of de-ionized water and simulated pygas, then adding a potential polymerization inhibitor at a concentration range of about 0.1 wt % to 5 wt %, in some embodiments, followed by a period of vigorous mixing, then a period of standing undisturbed to allow the phases to separate; the relative concentration of a species in each phase determines the partition coefficient. For purposes of partition coefficients recited herein, the test is conducted at a target inhibitor concentration of 1 wt % (10,000 ppm) followed by vigorous mixing for 30 minutes, followed by allowing the mixture to stand substantially unperturbed for 30 minutes. The pygas and aqueous phases that result in the unperturbed mixture are separated and concentration of the potential polymerization inhibitor in each phase is quantified, for example by high performance liquid chromatography coupled with mass spectrometry analysis (HPLC-MS). The partition ratio, or partition coefficient, of the potential polymerization inhibitor between the pygas and aqueous phases is then calculated according to the formula
[formula] where P is the partition coefficient, [I]pygas is the concentration of the potential polymerization inhibitor in the pygas phase, and [I]aqueous is the concentration of potential polymerization inhibitor in the aqueous phase.
The partition ratio of the polymerization inhibitor […]-2,2,6,6-tetramethylpiperidinyl-1-oxyl (HTMPO) between pygas and aqueous phases was determined by the following procedure. HTMPO was added to a mixture of equal volumes of de-ionized water and simulated pyrolysis gasoline (pygas). The simulated pygas consisted of a mixture of toluene, styrene, cyclohexane, n-hexane, and dicyclopentadiene. The amounts of inhibitor and liquid phases used were such that the inhibitor was present at a total concentration of 1.0 wt % based on the weight of the combined phases.
The system consisting of the inhibitor, pygas phase, and aqueous phase was vigorously stirred for thirty minutes, after which time it was allowed to sit undisturbed for an additional thirty minutes. The immiscible pygas and aqueous phases were then separated.
A stock solution of known concentration of HTMPO in acetonitrile was diluted with water/acetonitrile to give five different solutions at concentrations spanning an appropriate working range of a high performance liquid chromatograph (HPLC) coupled to a mass spectrometer with an electrospray ionization (ESI) source. The five dilute solutions were analyzed as standards using HPLC-MS, and the areas of the peaks corresponding to HTMPO in these solutions were used to construct a calibration curve of peak area vs. concentration (mass fraction, ppm).
The pygas phase of unknown concentration of HTMPO, separated from the aqueous phase in the first part of the experiment, was diluted with water/acetonitrile to give a solution whose concentration was within the range of the calibration curve. The dilute pygas solution was analyzed by HPLC-MS, and the concentration of HTMPO in this pygas solution was calculated by interpolation of its HTMPO peak area into the calibration curve. The concentration of HTMPO in the original, undiluted pygas phase was calculated by applying the dilution factor to the interpolated concentration of the diluted solution. […]

With `CC1(C)CC(O)CC(C)(C)N1[O]` [HTMPO, 4-hydroxy-2,2,6,6-tetramethylpiperidinyl-1-oxyl] the “[HTMPO] (ppm) in Undiluted Phase, Average” value (Aqueous Phase) was 7410.8 ± 453.5 ppm, the “[HTMPO] (ppm) in Undiluted Phase” value (Aqueous Phase) was 7155.2 ppm and 7142.9 ppm and 7934.4 ppm and the “Partition Ratio (pygas/aqueous)” value (HTMPO) was 0.079 ± 0.008. The “[HTMPO] (ppm) in Undiluted Phase, Average” value (Pygas Phase) was 582.8 ± 47.0 ppm and the “[HTMPO] (ppm) in Undiluted Phase” value (Pygas Phase, equal volumes de-ionized water and simulated pygas) was 597.8 ppm and 530.2 ppm and 620.5 ppm.

With `CC1(C)CC(O)CC(C)(C)N1O` [HTMPOH, 1,4-dihydroxy-2,2,6,6-tetramethylpiperidine] the “[HTMPOH] (ppm) in Undiluted Phase, Average” value (Aqueous Phase) was 2829.8 ± 79.0 ppm, the “[HTMPOH] (ppm) in Undiluted Phase” value (Aqueous Phase) was 2807.5 ppm and 2764.3 ppm and 2917.6 ppm and the “Partition Ratio (pygas/aqueous)” value (HTMPOH) was 0.0096 ± 0.0003. The “[HTMPOH] (ppm) in Undiluted Phase, Average” value (Pygas Phase) was 27.2 ± 0.6 ppm and the “[HTMPOH] (ppm) in Undiluted Phase” value (Pygas Phase) was 27.8 ppm and 26.6 ppm and 27.2 ppm.

For `CCC(C)Nc1ccc(NC(C)CC)cc1` (stereo not drawn) [sBuPDA, N,N′-di-sec-butyl-1,4-phenylenediamine], the “[sBuPDA] (ppm) in Undiluted Phase, Average” value (Aqueous Phase) was 0.29 ± 0.03 ppm, the “[sBuPDA] (ppm) in Undiluted Phase” value (Aqueous Phase) was 0.29 ppm and 0.26 ppm and 0.32 ppm and the “[sBuPDA] (ppm) in Undiluted Phase, Average” value (Pygas Phase) was 4075 ± 161.6 ppm. For the same molecule, the “[sBuPDA] (ppm) in Undiluted Phase” value (Pygas Phase) was 4218.2 ppm and 4109.2 ppm and 3900.2 ppm and the “Partition Ratio (pygas/aqueous)” value (sBuPDA) was 14000 ± 2000.
